The values below come from ChEMBL document CHEMBL5042516, “Heterobivalent Ligand for the Adenosine A2A-Dopamine D2 Receptor Heteromer” (J Med Chem, 2022).

The test system of one test is HEK293T. In words: Stabilization of A2A/D2 receptor heterodimerization in human HEK-293T cells cotransfected with A2AR-Rluc and D2R-YFP at 100 nM assessed as increase in heteromer stabilization by measuring yellow fluorescent protein level by BRET assay relative to control. In kind it is cell-based. (BRET reads energy transfer from a luciferase to a nearby fluorophore.)

The species named for test [1] is Ovis aries. In words: Displacement of [3H]YM-09151-2 from dopamine D2 receptor from sheep brain striatum membrane assessed as first protomer region in unoccupied dimer incubated for 2 hrs by radioligand based competition binding assay. It counts as cell membranes.
The test system of test [2] is CHO. In words: Antagonist activity at chinese hamster D2 receptor expressed in CHO cells assessed as su-manirole induced response at 0.1 nM and measured for 30 mins by dynamic mass redistribution by DMR assay relative to control. In kind it is cell-based. Particulars: Cricetulus griseus, filed as antagonist.
The subject of test [3] is CHO. In words: Antagonist activity at chinese hamster A2A receptor expressed in CHO cells assessed as CGS 21 680 induced response at 10 nM and measured for 30 mins by dynamic mass redistribution by DMR assay. In kind it is cell-based. As to conditions: Cricetulus griseus, filed as antagonist.
For test [4], the species on record is Ovis aries. In words: Displacement of [3H]- ZM 241 385 from A2A receptor from sheep brain striatum membrane assessed as first protomer region in the unoccupied dimer in presence of TM5-TAT peptide by radioligand based competition binding assay. It counts as cell membranes.
The species named for test [5] is Ovis aries. In words: Displacement of [3H]- ZM 241 385 from A2A receptor from sheep brain striatum membrane assessed as first protomer region in the unoccupied dimer in presence of TM3-TAT peptide by radioligand based competition binding assay. It counts as cell membranes. A general note: Displacement assays read how much labelled ligand stays bound in the presence of the test substance.

The species named for test [6] is Ovis aries. In words: Displacement of [3H]- ZM 241 385 from A2A receptor from sheep brain striatum membrane assessed as first protomer region in the unoccupied dimer incubated for 2 hrs by radioligand based competition binding assay. In kind it is cell membranes.

Activity calls are given as the source filed them. The calls are words filed in the database; no cut-off is given here.

`COC(=O)CN(CC(=O)NCCOCCOCCNC(=O)CCC(=O)Nc1ccc(CCN2CN(c3ccccc3)C3(CCN(CCCC(=O)c4ccc(F)cc4)CC3)C2=O)cc1)CC(=O)NCCOCCOCCNC(=O)COc1ccc(CCCn2ncc3c2nc(N)n2nc(-c4ccco4)nc32)cc1`: the result in the test with HEK293T was Active.
Consider `COC(=O)CN(CC(=O)NCCOCCOCCOCCOCCOCCNC(C)=O)CC(=O)NCCOCCOCCOCCOCCOCCNC(=O)CCC(=O)Nc1ccc(CCN2CN(c3ccccc3)C3(CCN(CCCC(=O)c4ccc(F)cc4)CC3)C2=O)cc1`, for which the K in the test listed under Ovis aries [1] is 0.5 nM.
Regarding `O=C(O)CCC(=O)Nc1ccc(CCN2CN(c3ccccc3)C3(CCN(CCCC(=O)c4ccc(F)cc4)CC3)C2=O)cc1`, in the test with CHO [2], the outcome was Active.
For `COC(=O)CN(CC(=O)NCCCOCCOCCOCCCNC(=O)CCC(=O)Nc1ccc(CCN2CN(c3ccccc3)C3(CCN(CCCC(=O)c4ccc(F)cc4)CC3)C2=O)cc1)CC(=O)NCCCOCCOCCOCCCNC(=O)COc1ccc(CCCn2ncc3c2nc(N)n2nc(-c4ccco4)nc32)cc1`, the Activity result in the test with CHO [3] and in the test with CHO [2] was “Antagonist” each time. Also, in the test with HEK293T, the result was Active.
As for `COC(=O)CN(CC(=O)NCCOCCOCCOCCOCCOCCNC(=O)CCC(=O)Nc1ccc(CCN2CN(c3ccccc3)C3(CCN(CCCC(=O)c4ccc(F)cc4)CC3)C2=O)cc1)CC(=O)NCCOCCOCCOCCOCCOCCNC(=O)COc1ccc(CCCn2ncc3c2nc(N)n2nc(-c4ccco4)nc32)cc1`, the K is 36 nM in the test listed under Ovis aries [4], 0.13 nM in the test listed under Ovis aries [1], 1.7 nM in the test filed under Ovis aries [5] and 2.1 nM in the test listed under Ovis aries [6]. Also, the Activity result with CHO [3] and with CHO [2] was “Antagonist” throughout. Further, in the test on HEK293T, the result was Active.
For the compound `Nc1nc2c(cnn2CCCc2ccc(OCC(=O)O)cc2)c2nc(-c3ccco3)nn12`, the Activity result in the test with CHO [3] was “Antagonist”.
